Usually GI50 stands for the concentration at which growth is held to half of that of the control.

Results on 26 molecules are retold here after ChEMBL document CHEMBL1201862, “PubChem BioAssay data set” (2004).

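A five-concentration, 48-hour dose response in 96-well plates underlies each endpoint, interpolated linearly between surrounding concentrations. GI50: concentration for 50% inhibition of growth.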 Calls of active or inactive are those of the source. Rule as the data show it: active = GI50 up to about 1.1 µM and inactive = higher. Square brackets hold non-standard residues; d marks the D form. Peptide text beside a SMILES is read from it. * marks the point of attachment. ξ: configuration not given here. NMeN = CN[C@@H](CC(N)=O)C(=O)O; NMeV = CN[C@H](C(=O)O)C(C)C; ξNMeV = CNC(C(=O)O)C(C)C; Boc = CC(C)(C)OC(=O)*; ξNMeA = CNC(C)C(=O)O

Assay in all cases: DTP human tumour cell line panel, 48 h
Assay [1] deals with XF498.
For assay [2], the system named is KM-20L2.
Assay [3] concerns LXFL 529.
In assay [4] the test system is DLD-1.
The test system of assay [5] is DMS-114.
Assay [6] deals with M19-MEL.
The test system of assay [7] is RXF 631.
Assay [8] concerns DMS-273.
Assay [9] relates to HOP-18.

In the case of `COc1cc(C(C)c2cc3c(cc2OCCCCOc2cc4c(cc2C(C)c2cc(OC)c(OC)c(OC)c2)OCO4)OCO3)cc(OC)c1OC` (stereo not given), the GI50 in assay [1] was 27.6 µM (inactive); in assay [2], > 100 µM (inactive); in assay [3], 33.3 µM (inactive); in [4] it was 35.6 µM (inactive); in [5], 15.9 µM (inactive); in assay [6] it was 38.4 µM (inactive). Moreover, in [7], the GI50 is 39.7 µM (inactive).
Regarding `CCC1=NC(CO)[C@H](c2ccccc2)O1` (stereo not given in full), the GI50 in assay [1], in assay [8], in assay [2], in assay [4], in [5] and in assay [6] was > 100 µM (inactive) in each case. The GI50 in assay [9] is > 100 µM (inactive).
For the molecule `Cc1ccc(NS(=O)(=O)c2cc(C(C)(C)C)ccc2OCCOCCOCCOc2ccc(C(C)(C)C)cc2S(=O)(=O)Nc2ccc(C)cc2)cc1`, the GI50 in assay [8], in [4], in assay [5], in [6] and in assay [9] was > 100 µM (inactive) each time.
With `O=C1C=C(Nc2ccccc2C(=O)CC(=O)C(=O)Nc2ccc(Cl)c(Cl)c2)c2ccccc2C1=O`, the GI50 in [4] was 19.7 µM (inactive); in [5], 18.2 µM (inactive); in assay [6] it was 3.98 µM (inactive).
Turning to `S=c1nc2c(c[nH]1)C1c3ccccc3C2c2ccccc21`, the GI50 was > 100 µM (inactive) in [8]; > 100 µM (inactive) in assay [2]; > 100 µM (inactive) in [3]; 62.2 µM (inactive) in assay [5]; > 100 µM (inactive) in assay [6].
As to `Oc1cc(-c2c[nH]c3ccccc23)nc2cc3c(cc12)OCO3`, the GI50 in assay [1] is 41.6 µM (inactive); in [8], > 100 µM (inactive); in [2], > 100 µM (inactive); in assay [3] it was > 100 µM (inactive); in assay [4] it was > 100 µM (inactive); in assay [5] it was > 100 µM (inactive). The GI50 in [6] and in assay [7] was > 100 µM (inactive) each time.
Regarding `COc1ccc2c([nH]c3c(O)c(-c4c(C)cc5c([nH]c6c(CC=C(C)C)c(OC)ccc65)c4O)c(C)cc32)c1CC=C(C)C` [BISMURRAYAFOLINE B], the GI50 in assay [8], in assay [2], in assay [3], in [4], in [5] and in [6] was > 100 µM (inactive) in each case. Moreover, the GI50 in [9] was > 100 µM (inactive).
As to `N#Cc1cccc(/C=N/C23CC4CC(CC(C4)C2)C3)c1`, the GI50 in [8], in assay [2], in assay [5] and in assay [6] was > 100 µM (inactive) in each case.
Take `CC1CC(c2ccc([N+](=O)[O-])cc2)=Nc2ccccc2S1` (stereo not given): the GI50 in assay [1] was 31.6 µM (inactive); in assay [8] it was 20.2 µM (inactive); in assay [2], 18.4 µM (inactive); in [3] it was 13.3 µM (inactive); in assay [4], 12.9 µM (inactive); in assay [5], 17.4 µM (inactive). Besides, the GI50 was 13.8 µM (inactive) in assay [6] and > 100 µM (inactive) in [9].
As to `O=C1C2Cc3ccccc3CN2C(=O)N1CN1CCN(CN2C(=O)C3Cc4ccccc4CN3C2=O)CC1` (stereo not given), the GI50 in [8], in assay [2], in assay [4], in assay [5], in [6] and in assay [7] was > 100 µM (inactive) in each case. Besides, the GI50 in [9] is > 100 µM (inactive).
Take `CC(C)(C)C1CCC2(CC1)c1[nH]c3ccccc3c1C1(CCC(C(C)(C)C)CC1)c1[nH]c3ccccc3c12` (stereo not given): the GI50 in assay [1] was > 100 µM (inactive); in [8], > 100 µM (inactive); in assay [2], > 100 µM (inactive); in [3], > 100 µM (inactive); in [4], > 100 µM (inactive); in [5], 25.9 µM (inactive). Moreover, the GI50 in assay [6] and in assay [9] was > 100 µM (inactive) in each case.
Regarding `CON1C(=O)C2(CCCCC2)C(=O)C12C=CC(C)CC2` (stereo not given), the GI50 is > 100 µM (inactive) in assay [1]; > 100 µM (inactive) in assay [8]; > 100 µM (inactive) in [2]; > 100 µM (inactive) in assay [3]; 46.7 µM (inactive) in assay [5]; > 100 µM (inactive) in [6]. For the same molecule, the GI50 in assay [7] was > 100 µM (inactive).
With `COC(=O)C1=C(c2ccc(OC)c(OC)c2)OC(c2cc(OC)c(OC)c(OC)c2)C1` (stereo not given), the GI50 in assay [1] was 24.5 µM (inactive); in [8], 18.7 µM (inactive); in [2], > 100 µM (inactive); in [3], 0.711 µM (active); in assay [4], 2.12 µM (inactive); in [5], 37.6 µM (inactive). In addition, the GI50 is > 100 µM (inactive) in assay [6], 94.2 µM (inactive) in assay [7] and 61.7 µM (inactive) in [9].
On to `CC1=NN(C(=O)Cc2ccccc2)C(=O)/C1=C\C=C\c1ccccc1`, for which the GI50 is > 100 µM (inactive) in assay [1], > 100 µM (inactive) in assay [8], > 100 µM (inactive) in assay [4] and 14.8 µM (inactive) in assay [9].
On to `C/C(=N\N(C)C)C(CN1CCCCC1)C(c1ccccc1)c1c(O)c2ccccc2oc1=O` (stereo not given), for which the GI50 in [1] is 74.1 µM (inactive); in [8] it was > 100 µM (inactive); in [2], > 100 µM (inactive); in assay [3], > 100 µM (inactive); in assay [4], > 100 µM (inactive); in assay [5] it was > 100 µM (inactive). For the same molecule, the GI50 in assay [6], in assay [7] and in assay [9] was > 100 µM (inactive) each time.
In the case of `COC(=O)C1=C(C)N(NC(N)=O)C2(N)N(NC(N)=O)C(C)=C(C(=O)OC)C12C#N` (stereo not given), the GI50 in [1], in [8], in assay [2], in assay [4], in [5] and in assay [6] was > 100 µM (inactive) throughout. In addition, the GI50 in assay [7] and in [9] was > 100 µM (inactive) throughout.
For `CCCCCCCCCCCC(=O)OCC1OC(n2cc(F)c(=O)[nH]c2=O)C(N)C(O)C1O` (stereo not given), the GI50 in [8] was > 100 µM (inactive); in assay [2], 91.4 µM (inactive); in [3], > 100 µM (inactive); in assay [4] it was 71.8 µM (inactive); in assay [5], > 100 µM (inactive); in [6], > 100 µM (inactive). For the same molecule, the GI50 in [9] is 88.9 µM (inactive).
On to `COc1ccc(S(=O)(=O)N/N=C/c2cc(I)cc([N+](=O)[O-])c2O)cc1OC`, for which the GI50 in [1] was 24.1 µM (inactive); in [8] it was 35.2 µM (inactive); in [2], > 100 µM (inactive); in [3], 27 µM (inactive); in assay [4], 36.3 µM (inactive); in assay [6] it was 33 µM (inactive). The GI50 was 38.8 µM (inactive) in assay [7] and 21.6 µM (inactive) in assay [9].
`NC(=O)N/N=C(\C(=O)C(=O)Nc1ccc(Cl)c(C(F)(F)F)c1)c1nc2ccc(C(=O)c3ccccc3)cc2nc1O`: the GI50 in assay [1] was 9.62 µM (inactive); in assay [8], > 100 µM (inactive); in assay [2] it was > 100 µM (inactive); in [5] it was 68.4 µM (inactive); in [6], > 100 µM (inactive); in assay [9], 23.7 µM (inactive).
Turning to `O=C(O)CP(=S)(S)c1ccccc1` (stereo not given), the GI50 in assay [1] is > 100 µM (inactive); in [8] it was > 100 µM (inactive); in assay [2] it was > 10 µM (inactive); in assay [3], > 100 µM (inactive); in assay [4] it was > 100 µM (inactive); in [5] it was > 100 µM (inactive). In addition, the GI50 in assay [6] was > 100 µM (inactive).
Turning to `COC(=O)C(C)N(C)C(=O)[C@H](CC(N)=O)N(C)C(=O)[C@@H]1CCCN1C(=O)[C@H](C(C)C)N(C)C(=O)C(C(C)C)N(C)C(=O)[C@@H](NC(=O)OC(C)(C)C)C(C)C` (stereo not given in full) (Boc-V[ξNMeV][NMeV]P[NMeN][ξNMeA]-OMe), the GI50 was > 100 µM (inactive) in assay [1]; 42.1 µM (inactive) in assay [8]; > 100 µM (inactive) in assay [2]; > 100 µM (inactive) in assay [3]; 37 µM (inactive) in assay [4]; > 100 µM (inactive) in assay [6]. Further, in [9], the GI50 is > 100 µM (inactive).
For the molecule `CC1(C)CCc2cc3c(cc2O1)OC(C)(C)C1c2c(ccc4c2CCC(C)(C)O4)OC31` (stereo not given), the GI50 in assay [1] was > 100 µM (inactive); in assay [8], > 100 µM (inactive); in assay [3], > 100 µM (inactive); in assay [4], > 100 µM (inactive); in [5] it was 98.4 µM (inactive); in [6], > 100 µM (inactive). In assay [9], the GI50 is < 0.01 µM (active).
As for `CCOC(=O)c1cnc2oc(-c3ccc(OC)cc3)nn2c1=O`, the GI50 in assay [8], in [2], in assay [3], in assay [5] and in [6] was > 100 µM (inactive) throughout.
As for `CC1=C(C(=O)Nc2ccc([N+](=O)[O-])cc2)C(c2cccc([N+](=O)[O-])c2)C(C(=O)Nc2ccc([N+](=O)[O-])cc2)=C(C)N1`, the GI50 in assay [1] was 2.87 µM (inactive); in assay [2], 16.6 µM (inactive); in [3], 8.53 µM (inactive); in [4], 9.66 µM (inactive); in assay [5] it was 8.53 µM (inactive); in [6] it was 23 µM (inactive). The GI50 in [7] and in assay [9] was > 100 µM (inactive) throughout.
Turning to `c1cc2c(cnc3cscc32)s1`, the GI50 in [1] is 11 µM (inactive); in assay [8], > 100 µM (inactive); in [4] it was > 100 µM (inactive); in [5] it was > 100 µM (inactive); in assay [6] it was > 100 µM (inactive); in assay [7], > 100 µM (inactive).
For `C1=CC=C2NCCOCC/N=C3/C=CC=CC=C3NCCOCC/N=C\2C=C1`, the GI50 in [8] is > 100 µM (inactive); in assay [2], 21.6 µM (inactive); in assay [3], 40.1 µM (inactive); in assay [4], > 100 µM (inactive); in [5], 46.6 µM (inactive); in assay [6] it was > 100 µM (inactive). Further, the GI50 in [7] is 30 µM (inactive); in assay [9] it was > 100 µM (inactive).
